Reference: article PMC9669616, “The recommended dosage regimen for caspofungin in patients with higher body weight or hypoalbuminaemia will result in low exposure: Five years of data based on a population pharmacokinetic model and Monte-Carlo simulations” (Frontiers in Pharmacology, 2022)
In brackets after ≈: the same amount, converted by molar mass. Where two headings read alike, the source gives them in different places.

Legend:
[1] = cited from earlier work
Excerpt: Safety also needs to be considered when increasing the caspofungin exposure, because any harm to the patient should be minimal.

[2] = system: ALB; conditions: cited from earlier work
Excerpt: The final general and ICU-subgroup PPK models of caspofungin were used for the simulation study to evaluate the degree of exposure. A MCS method published before ([Pfaller et al., 2006]) was used for analyzing the probability of target attainment (PTA) and cumulative fraction of response (CFR) following various caspofungin dosage regimens in all patients and ICU patients. […] Caspofungin was extensively bound to ALB (97%) ([Stone ...

[3] = healthy subjects; ref Stone et al., 2002; cited from earlier work
Excerpt: Van den Elst et al. found the caspofungin exposure in ICU patients was low compared with that in healthy volunteers and other (non)critically ill patients ([van der Elst et al., 2017]). Many factors could influence the caspo ...

[4] = general population pharmacokinetic (PPK) model, all patients; type: in vivo, human; parameters: AUC: concentration or dose not given beside the values; conditions: for AUC / clearance: general PPK model, mean ± SD (range)
Method: The patients for the general PPK model came from a single-center, and the study was conducted from June 2014 to June 2019 at the First Affiliated Hospital of Xi’an Jiaotong University. Patients who had been diagnosed with confirmed or probable candidiasis and been treated with caspofungin were included in the study. The identification of infection was according to the IFIs Cooperative Group and the National Institute of Allergy and Infectious Diseases Mycoses Study Group criteria ([De Pauw et al., 2008]). All patients were divided into four groups (ICU patients, SOT patients, HEMT patients, and other patients from respiratory department). Caspofungin was administered intravenously over 1 h. Most of the patients received the standard dosage regimen of 70/50 mg. Patients with hepatic insufficiency (Child-Pugh B) received a reduced dosage regimen of 70/35 mg and patients with body weight (WT) > 75 kg received an increased dosage regimen of 70/70 mg. The study protocol was approved by the institutional review board of the teaching hospital (No.XJTU1AF2017LSK-28). All subjects signed the informed consent before any screening item being performed. History of hypersensitivity, severe intolerance to caspofungin, other constituents change resulted from caspofungin, age <18 years and pregnancies were excluded in the study.
Factors which may influence the PK parameters of caspofungin were collected for the patients of the general PPK model from the teaching hospital. The factors included demographic factors (sex, age and WT); medical characteristics [carrier mediated transportation (CMT), surgical operation (SOP), baseline disease, organ support therapy]; laboratory data [red blood cells, hemoglobin, hematocrit, white blood cell, lymphocyte, neutrophile, platelets, alanine aminotransferase, aspartate transaminase, alkaline phosphatase, gamma-glutamyl transpeptidase, total bilirubin, albumin (ALB), blood urea nitrogen, uric acid, serum creatinine acid, creatinine clearance rate]; concomitant medications (immunosuppressants, glucocorticoid, antimicrobial agents and antivirals) and other related factors. Because we could not obtain all values of ICU patients for the seven literature studies, only factors which may have a great influence on the PK of caspofungin, such as sex, age, WT, dosage and method of administration, ALB concentrations and whether concomitant continuous renal replacement therapy (CRRT) of ICU patients from the teaching hospital and other seven studies were collected for the construction of the ICU-subgroup PPK model. The selection criteria were based on the results obtained from previous studies of factors influencing the caspofungin plasma concentration ([Spriet et al., 2009]; [Spriet et al., 2011]; [Weiler et al., 2013]; [Muilwijk et al., 2014]; [Sinnollareddy et al., 2015]; [Roger et al., 2017]; [van der Elst et al., 2017]). […] Combined with the clinical situation, the ALB and WT were converted into dichotomous variables according to whether the ALB <35 g/L or ≥35 g/L and whether the WT < 70 kg or ≥70 kg, respectively.
We collected the pooled data of caspofungin plasma samples from patients at the teaching hospital who received caspofungin prevention or treatment therapies from June 2014 to June 2019. Caspofungin plasma C min samples were collected at interval windows of 22–24 h post-dose, while other caspofungin plasma samples were collected at interval windows of 0–12 h and 12–22 h post-dose. The caspofungin plasma concentrations from the other seven studies of ICU patients—which included both dense sampling and sparse sampling—were directly collected from the relevant published papers, and all related caspofungin plasma concentrations were collected ([Spriet et al., 2009]; [Spriet et al., 2011]; [Weiler et al., 2013]; [Muilwijk et al., 2014]; [Sinnollareddy et al., 2015]; [Roger et al., 2017]; [van der Elst et al., 2017]). […]

[5] = system: C. glabrata; conditions: ref Li et al., 2013; cited from earlier work
Excerpt: (§1) The first goal of this study was to determine whether the contemporary dosage regimens for caspofungin can achieve the target PK/PD index against Candida isolates in all patients and especially in ICU patients. […] At present, the relationship between caspofungin Cmax and toxicity remains poorly clarified ([Kim et al., 2022]). In this study, we only used the fAUC/MIC as caspofungin PK/PD target for we could get th ...

[6] = system: C. parapsilosis; conditions: ref Li et al., 2013; cited from earlier work
Excerpt: as §1

[7] = system: C. albicans; conditions: ref Li et al., 2013; cited from earlier work
Excerpt: as §1

[8] = cited from earlier work; remark: listed apart in the source
Excerpt: Van den Elst et al. found the caspofungin exposure in ICU patients was low compared with that in healthy volunteers and other (non)critically ill patients ([van der Elst et al., 2017]).

[9] = all patients n = 299, final model
[10] = human, plasma, iv, ICU patients of the teaching hospital
[11] = human, plasma, iv, all patients n = 299
[12] = human, plasma, iv, hematopathy patients
[13] = human, plasma, iv, other patients
[14] = human, plasma, iv, transplant (SOT) patients

Compound: CC[C@H](C)C[C@H](C)CCCCCCCCC(=O)N[C@H]1C[C@@H](O)[C@@H](NCCN)NC(=O)[C@@H]2[C@@H](O)CCN2C(=O)[C@H]([C@H](O)CCN)NC(=O)[C@H]([C@H](O)[C@@H](O)c2ccc(O)cc2)NC(=O)[C@@H]2C[C@@H](O)CN2C(=O)[C@H]([C@@H](C)O)NC1=O [caspofungin]
- tolerability ([1]; 150 mg daily for a median of 24.5 days, ref Cornely et al., 2011): well tolerated without dose-limiting toxicity
- tolerability ([1]; patients with invasive candidiasis, 150 mg daily, mean duration 14.2 days, ref Betts et al., 2009): well tolerated
- bound to ALB ([2]; ref Stone et al., 2004): 97%
- protein binding value ([2]; used to calculate free drug concentrations in the simulation, ref Andes et al., 2010): 97%
- plasma trough concentration (C min), range [3]: 1120 to 1780 ng/mL
- θ1, typical population value of CL [4, 9]: 0.32 L/h
- θ4, influence of ALB (<35 g/L) on V [4, 9]: 0.49
- θ6, influence of WT (≥70 kg) on V [4, 9]: 0.24
- θ4, influence of ALB (<35 g/L) on V ([4]; all patients, bootstrap, lower boundary of 95% CI): 0.25
- θ4, influence of ALB (<35 g/L) on V ([4]; all patients, bootstrap, upper boundary of 95% CI): 0.73
- AUC [4, 10]: 101 µg·h/mL
- clearance [4, 10]: 7.83 mL/min
- AUC [4, 11]: 126 µg·h/mL
- clearance [4, 11]: 7 mL/min
- AUC [4, 12]: 118 µg·h/mL
- clearance [4, 12]: 7.5 mL/min
- AUC [4, 13]: 120 µg·h/mL
- clearance [4, 13]: 6.83 mL/min
- AUC [4, 14]: 136 µg·h/mL
- clearance [4, 14]: 6.67 mL/min
- Vd ([4]; human, plasma, iv, all patients n = 299, final model, read-out: θ2, typical population value of V): 13.3 L
- MIC, mean [5]: 0.25 µg/mL (≈ 0.229 µM)
- MIC, range [5]: 0.047 to 0.38 µg/mL
- MIC, mean [6]: 1.5 µg/mL (≈ 1.37 µM)
- MIC, range [6]: 0.38 to 2 µg/mL
- MIC, mean [7]: 0.19 µg/mL (≈ 0.174 µM)
- MIC, range [7]: 0.032 to 0.38 µg/mL
- CL, typical value ([8]; ICU patients, day 1, ref Borsuk-De Moor et al., 2020): 0.563 L/h
- CL, typical value ([8]; ICU patients, day 2, ref Borsuk-De Moor et al., 2020): 0.737 L/h
- CL, typical value ([8]; ICU patients, day 3, ref Borsuk-De Moor et al., 2020): 1.01 L/h
- decrease in caspofungin exposure ([8]; ICU patients, increasing clearance with subsequent doses, ref Borsuk-De Moor et al., 2020): > 20%
- CL ([8]; ICU patients, ref Martial et al., 2016): 0.55 L/h
- CL ([8]; critically-ill Chinese patients, ref Li et al., 2021): 0.32 L/h
- CL ([8]; general patients, ref Wurthwein et al., 2012): 0.46 L/h
- CL ([8]; general patients, ref Wurthwein et al., 2013): 0.40 L/h
